Drawing on US20170334899A1, “AMINO-SUBSTITUTED ISOTHIAZOLES” (Bayer Pharma Aktiengesellschaft, priority 2014, published 2017), this text covers IC50 for 31 molecules.

For the experiment, the system named is HeLa. The experiment in a line: Proliferation assay (crystal violet), HeLa. It is filed as cell-based. The settings on record: Homo sapiens, HeLa, 96 h, HeLa cells; 4 days incubation; crystal violet staining; read-out: IC50 inhibition of proliferation, HeLa. The procedure, abridged:
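Crystal violet proliferation readout, 4-day compound incubation, 0.001–10 μM, final DMSO 0.5%. Zero-point plate stained at time of dosing set as 0%, untreated control as 100%; IC50 via 4-parameter fit.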
As to `Cc1nsc(Nc2cncc(C(F)(F)F)n2)c1C(=O)Nc1ccc(C(=O)OC(C)(C)C)cc1` [Example 193, tert-butyl tert-butyl 4-{[(3-methyl-5-{[6-(trifluoromethyl)pyrazin-2-yl]amino}-1,2-thiazol-4-yl)carbonyl]amino}benzoate], the IC50 stood at 2.7 µM.
Consider `Cc1nsc(Nc2cncc(C(F)(F)F)n2)c1C(=O)Nc1cccc(S(C)(=O)=O)c1` [Example 194, 3-methyl-N-[3-(methylsulfonyl)phenyl]-5-{[6-(trifluoromethyl)pyrazin-2-yl]amino}-1,2-thiazole-4-carboxamide], for which the IC50 is 2.5 µM.
Next, `Cc1nsc(Nc2cnc(C(F)(F)F)cn2)c1C(=O)Nc1cccc(S(C)(=O)=O)c1` [Example 195, 3-methyl-N-[3-(methylsulfonyl)phenyl]-5-{[5-(trifluoromethyl)pyrazin-2-yl]amino}-1,2-thiazole-4-carboxamide]: 3.1 µM.
Next, `Cc1nsc(Nc2cncc(C(F)(F)F)n2)c1C(=O)Nc1ccc(OCCN)nc1` [Example 196, N-[6-(2-aminoethoxy)pyridin-3-yl]-3-methyl-5-{[6-(trifluoromethyl)pyrazin-2-yl]amino}-1,2-thiazole-4-carboxamide]: > 10 µM; `Cc1nsc(Nc2cnc(C(F)(F)F)cn2)c1C(=O)Nc1ccc(OCCN)nc1` [Example 197, N-[6-(2-aminoethoxy)pyridin-3-yl]-3-methyl-5-{[5-(trifluoromethyl)pyrazin-2-yl]amino}-1,2-thiazole-4-carboxamide]: 7.5 µM.
Regarding `Cc1nsc(Nc2cnc3ccccc3n2)c1C(=O)Nc1ccc(OCCC(=O)OC(C)(C)C)nc1` [Example 198, tert-butyl 3-{[5-({[3-methyl-5-(quinoxalin-2-ylamino)-1,2-thiazol-4-yl]carbonyl}amino)pyridin-2-yl]oxy}propanoate], the IC50 came to 6.7 µM.
Next, `Cc1nsc(Nc2ccc(C#N)cn2)c1C(=O)Nc1ccc(OCCC(=O)OC(C)(C)C)nc1` [Example 199, tert-butyl 3-({5-[({5-[(5-cyanopyridin-2-yl)amino]-3-methyl-1,2-thiazol-4-yl}carbonyl)amino]pyridin-2-yl}oxy)propanoate]: 8.7 µM; `Cc1nsc(Nc2cc(C#N)ccn2)c1C(=O)Nc1ccc(OCCC(=O)OC(C)(C)C)nc1` [Example 200, tert-butyl 3-({5-[({5-[(4-cyanopyridin-2-yl)amino]-3-methyl-1,2-thiazol-4-yl}carbonyl)amino]pyridin-2-yl}oxy)propanoate]: > 10 µM.
As to `Cc1nsc(Nc2cnc3ccccc3n2)c1C(=O)Nc1ccc(C(N)=O)c(F)c1` [Example 201, N-(4-carbamoyl-3-fluorophenyl)-3-methyl-5-(quinoxalin-2-ylamino)-1,2-thiazole-4-carboxamide], the IC50 is > 10 µM.
For `Cc1nsc(Nc2cnc3ccccc3n2)c1C(=O)Nc1ccc(F)c(C(N)=O)c1` [Example 202, N-(3-carbamoyl-4-fluorophenyl)-3-methyl-5-(quinoxalin-2-ylamino)-1,2-thiazole-4-carboxamide], the IC50 was > 10 µM.
Consider `Cc1nsc(Nc2ccc(C#N)cn2)c1C(=O)Nc1ccc(F)c(C(N)=O)c1` [Example 203, N-(3-carbamoyl-4-fluorophenyl)-5-[(5-cyanopyridin-2-yl)amino]-3-methyl-1,2-thiazole-4-carboxamide], for which the IC50 is > 10 µM.
Next, `Cc1nsc(Nc2cncc(C(F)(F)F)n2)c1C(=O)Nc1ccc(F)c(C(N)=O)c1` [Example 204, N-(3-carbamoyl-4-fluorophenyl)-3-methyl-5-{[6-(trifluoromethyl)pyrazin-2-yl]amino}-1,2-thiazole-4-carboxamide]: > 10 µM.
Regarding `CC(=O)Nc1cc(NC(=O)c2c(C)nsc2Nc2cnccn2)ccc1F` [Example 205, N-(3-acetamido-4-fluorophenyl)-3-methyl-5-(pyrazin-2-ylamino)-1,2-thiazole-4-carboxamide], the IC50 was > 10 µM.
`CC(=O)Nc1cc(NC(=O)c2c(C)nsc2Nc2cnc(C(F)(F)F)cn2)ccc1F` [Example 206, N-(3-acetamido-4-fluorophenyl)-3-methyl-5-{[5-(trifluoromethyl)pyrazin-2-yl]amino}-1,2-thiazole-4-carboxamide]: the IC50 turned out to be 5.1 µM.
`CNC(=O)c1ccc(NC(=O)c2c(C)nsc2Nc2cnc3ccccc3n2)cc1F` [Example 207, N-[3-fluoro-4-(methylcarbamoyl)phenyl]-3-methyl-5-(quinoxalin-2-ylamino)-1,2-thiazole-4-carboxamide]: the IC50 was > 10 µM.
Consider `CNC(=O)c1ccc(NC(=O)c2c(C)nsc2Nc2ccc(C#N)cn2)cc1F` [Example 208, 5-[(5-cyanopyridin-2-yl)amino]-N-[3-fluoro-4-(methylcarbamoyl)phenyl]-3-methyl-1,2-thiazole-4-carboxamide], for which the IC50 amounted to 6 µM.
With `Cc1nsc(Nc2cncc(C(F)(F)F)n2)c1C(=O)Nc1ccc(OCCCN)nc1` [Example 209, N-[6-(3-aminopropoxy)pyridin-3-yl]-3-methyl-5-{[6-(trifluoromethyl)pyrazin-2-yl]amino}-1,2-thiazole-4-carboxamide], the IC50 is > 10 µM.
Next, `CNS(=O)(=O)c1ccc(NC(=O)c2c(C)nsc2Nc2cc(C#N)ccn2)cc1` [Example 210, 5-[(4-cyanopyridin-2-yl)amino]-3-methyl-N-[4-(methylsulfamoyl)phenyl]-1,2-thiazole-4-carboxamide]: 1.9 µM; `CNS(=O)(=O)c1ccc(NC(=O)c2c(C)nsc2Nc2cncc(C(F)(F)F)n2)cc1` [Example 211, 3-methyl-N-[4-(methylsulfamoyl)phenyl]-5-{[6-(trifluoromethyl)pyrazin-2-yl]amino}-1,2-thiazole-4-carboxamide]: 9.9 µM.
Take `CNS(=O)(=O)c1ccc(NC(=O)c2c(C)nsc2Nc2cnc(C(F)(F)F)cn2)cc1` [Example 212, 3-methyl-N-[4-(methylsulfamoyl)phenyl]-5-{[5-(trifluoromethyl)pyrazin-2-yl]amino}-1,2-thiazole-4-carboxamide]: the IC50 was > 10 µM.
Regarding `Cc1nsc(Nc2cnc(C(F)(F)F)cn2)c1C(=O)Nc1ccc(C(=O)NCCN2CCCC(F)C2)cc1` (stereo not shown) [Example 213, N-(4-{[2-(3-fluoropiperidin-1-yl)ethyl]carbamoyl}phenyl)-3-methyl-5-{[5-(trifluoromethyl)pyrazin-2-yl]amino}-1,2-thiazole-4-carboxamide], the IC50 came out at 2.5 µM.
Next, `Cc1nsc(Nc2cncc(C(F)(F)F)n2)c1C(=O)Nc1ccc(C(=O)NCCN2CCCC(F)(F)C2)cc1` [Example 214, N-(4-{[2-(3,3-difluoropiperidin-1-yl)ethyl]carbamoyl}phenyl)-3-methyl-5-{[6-(trifluoromethyl)pyrazin-2-yl]amino}-1,2-thiazole-4-carboxamide]: 4.6 µM; `Cc1nsc(Nc2cnc(C(F)(F)F)cn2)c1C(=O)Nc1ccc(OCCNC(=O)OC(C)(C)C)c(F)c1` [Example 215, tert-butyl [2-(2-fluoro-4-{[(3-methyl-5-{[5-(trifluoromethyl)pyrazin-2-yl]amino}-1,2-thiazol-4-yl)carbonyl]amino}phenoxy)ethyl]carbamate]: 0.14 µM.
Next, `Cc1nsc(Nc2cncc(C(F)(F)F)n2)c1C(=O)Nc1ccc(OCCNC(=O)OC(C)(C)C)c(F)c1` [Example 216, tert-butyl [2-(2-fluoro-4-{[(3-methyl-5-{[6-(trifluoromethyl)pyrazin-2-yl]amino}-1,2-thiazol-4-yl)carbonyl]amino}phenoxy)ethyl]carbamate]: 0.52 µM.
Next, `Cc1nsc(Nc2cnc(C(F)(F)F)cn2)c1C(=O)Nc1ccc(OC2CCN(C(=O)OC(C)(C)C)CC2)c(F)c1` [Example 217, tert-butyl 4-(2-fluoro-4-{[(3-methyl-5-{[5-(trifluoromethyl)pyrazin-2-yl]amino}-1,2-thiazol-4-yl)carbonyl]amino}phenoxy)piperidine-1-carboxylate]: 0.17 µM; `Cc1nsc(Nc2cncc(C(F)(F)F)n2)c1C(=O)Nc1ccc(OC2CCN(C(C)C)CC2)nc1` [Example 218, N-{6-[(1-isopropylpiperidin-4-yl)oxy]pyridin-3-yl}-3-methyl-5-{[6-(trifluoromethyl)pyrazin-2-yl]amino}-1,2-thiazole-4-carboxamide]: 9.9 µM; `Cc1nsc(Nc2cncc(C(F)(F)F)n2)c1C(=O)Nc1ccc(OC2CCN(C)CC2)nc1` [Example 219, 3-methyl-N-{6-[(1-methylpiperidin-4-yl)oxy]pyridin-3-yl}-5-{[6-(trifluoromethyl)pyrazin-2-yl]amino}-1,2-thiazole-4-carboxamide]: > 10 µM.
As to `Cc1nsc(Nc2cnc(C(F)(F)F)cn2)c1C(=O)Nc1ccc(OC2CCN(C)CC2)nc1` [Example 220, 3-methyl-N-{6-[(1-methylpiperidin-4-yl)oxy]pyridin-3-yl}-5-{[5-(trifluoromethyl)pyrazin-2-yl]amino}-1,2-thiazole-4-carboxamide], the IC50 is 6.2 µM.
Next, `Cc1nsc(Nc2cnc(C(F)(F)F)cn2)c1C(=O)Nc1ccc(OCCN)c(F)c1` [Example 221, 3-N-[4-(2-aminoethoxy)-3-fluorophenyl]-3-methyl-5-{[5-(trifluoromethyl)pyrazin-2-yl]amino}-1,2-thiazole-4-carboxamide]: 2.5 µM; `Cc1nsc(Nc2cncc(C(F)(F)F)n2)c1C(=O)Nc1ccc(C(=O)NC2CCN(C(=O)OC(C)(C)C)CC2)cc1` [Example 222, tert-butyl 4-[(4-{[(3-methyl-5-{[6-(trifluoromethyl)pyrazin-2-yl]amino}-1,2-thiazol-4-yl)carbonyl]amino}benzoyl)amino] piperidine-1-carboxylate]: 6.2 µM; `Cc1nsc(Nc2cncc(C(F)(F)F)n2)c1C(=O)Nc1ccc(OC2CCN(CCF)CC2)c(F)c1` [Example 223, N-(3-fluoro-4-{[1-(2-fluoroethyl)piperidin-4-yl]oxy}phenyl)-3-methyl-5-{[6-(trifluoromethyl)pyrazin-2-yl]amino}-1,2-thiazole-4-carboxamide]: 0.76 µM.
